Source: patent publication US20170340688A1, “TITRATED EXTRACTS OF CYNARA SCOLYMUS AND USES THEREOF” (priority 2014, published 2017)
In brackets after ≈: the same amount, converted by molar mass.

Columns and labels:
STAT3 [1] = target: T1, STAT3 (Homo sapiens, UniProt P40763); experiment: Modulation of the STAT3 pathway in KARPAS cells (Western Blot, EMSA); format: cell-based; conditions: extract 200 μg/ml (0.181% cynaropicrin) 2-4 hours, cynaropicrin 25 μM
Procedure: (§1) The cells were lysed in ice for 30 min in lysis buffer NP40 (50 mM Tris-HCl pH 7.4, 150 mM NaCl, 1% NP-40, 1 mM EGTA, 1 mM EDTA) complemented with inhibitors of protease and phosphatase (5 mM PMSF, 3 mM NaF, 1 mM DTT, 1 mM NaVO4). Equal amounts of total extracts of protein (30 μg) were broken down by means of denaturing electrophoresis (SDS-PAGE) in 8% polyacrylamide gel and transferred for 2 hours on nitrocellulose membrane. The membranes were blocked with a 5% solution of milk dissolved in TBS-Tween_20 0.05% for 1 hour and incubated with the specific primary antibodies. The following primary antibodies were used: anti-beta actin (A-2228, SIGMA), anti-pSTAT3 (Tyr-705) (sc8059, Santa Cruz) and anti-STAT3 (sc7179, Santa Cruz). The secondary antibodies were peroxidase-conjugated (Santa Cruz), and ECL reagents (Amersham, GE Healthcare, Piscataway, N.J., USA) were used for the chemiluminescence.
(§2) 200 μg/ml of extract that contains 0.181% of cynaropricrin contain 1.2 μM of cynaropricrin.

[2] = tested on: confluent prostatic adenocarcinoma cell line DU145; experiment: WST-1 cell vitality assay, confluent DU145 (high levels of constitutively activated STAT3); format: cell-based, human
Procedure: FIG. 7 Assay of cell vitality in the confluent prostatic adenocarcinoma cell line DU145, treated with various concentrations of artichoke extract (50-600 μg/ml) for various treatment times (24 and 48 hours) with indications of the content in cynaropicrin of the extract. The confluency of the cells increases the levels of constitutively activated STAT3, making the cells themselves largely resistant to death. The vitality was analysed using the WST-1 assay (WST-1 test, see the experimental section for the conditions). […] The squares show the trend over 24 hours and the circles show the trend at 48 hours with extract doses from 0 to 600 μg/ml and the respective content in cynaropicrin, expressed both in μg/ml and in μM, of the extract at the various concentrations (100, 200, 300, 400, 500, 600 μg/ml).
FIG. 8. […] The vitality was analysed using the WST-1 assay (WST-1 test, see the experimental section for the conditions). […]
Cytotoxicity was assayed using the WST assay (WSTs=water soluble tetrazolium salts) which utilises the ability of mitochondrial dehydrogenases to separate the tetrazole ring from the yellow-coloured WST molecule (tetrazolium salt) to give an orange formazan salt. The amount of formazan produced following the treatment of the cells with the substances being tested is measured using spectrophotometry and is proportional to the number of living cells. […]

[3] = tested on: human carcinoma cells DU145; experiment: WST-1 cell vitality in co-treatment with chemotherapeutic agents, DU145; format: cell-based
Procedure: Cytotoxicity was assayed using the WST assay (WSTs=water soluble tetrazolium salts) which utilises the ability of mitochondrial dehydrogenases to separate the tetrazole ring from the yellow-coloured WST molecule (tetrazolium salt) to give an orange formazan salt. The amount of formazan produced following the treatment of the cells with the substances being tested is measured using spectrophotometry and is proportional to the number of living cells. WST-1 and in particular WST-8 (2-(2-methoxy-4-nitrophenyl)-3-(4-nitrophenyl)-5-(2,4-disulfophenyl)-2H-tetrazolium) are advantageous with respect to MTT because they reduce outside the cells, in combination with PMS as electron mediator, to produce water-soluble formazan.
The assays were carried out in parallel with variable doses of cynaropicrin in place of the extract, to compare the efficacy of the extract and that of cynaropicrin.

GSH = experiment: Intracellular analysis of GSH (colorimetric); format: cell-based; conditions: cynaropicrin 12.5, 25, 50 μM
Procedure: The intracellular concentration of GSH was evaluated by means of a colorimetric method. The cell extract, deproteinised by means of 10% trichloroacetic acid, was treated with dithio nitrobenzene (DTNB), and the quantity of TNB, which is released following the reaction with GSH, was evaluated by analysing the absorbance at 412 nm.

STAT3 [4] = experiment: Glutathionylation of STAT3; format: cell-based; conditions: cynaropicrin 12 microM, 25 μM
Procedure: STAT3 was immunoprecipitated by incubating the protein cell extract overnight with an anti-STAT3 antibody. The proteins obtained were separated by means of SDS-PAGE in non-reducing conditions and were transferred on PVDF membrane. The glutathionylated STAT3 was recognised using an anti-GSH antibody.

STAT3 [5] = target: T1, STAT3; experiment: Modulation of the STAT3 pathway in DU145 cells (Western Blot, EMSA); format: cell-based; set-up: The cell line DU145 expresses pStat3 in a constitutive manner; endogenous in cells; host or cells: DU145 (human prostate carcinoma, ATCC HTB-81); conditions: extract 200 μg/ml (0.181% cynaropicrin) 2-4 hours, cynaropicrin 25 μM
Procedure: as §1, §2

MDA-MB231 = experiment: Cell vitality by Trypan Blue/Countess, MDA-MB231 under normoxia; format: cell-based; conditions: Homo sapiens, MDA-MB-231, 24 hours
Procedure: Human breast cancer cell lines T47-D and MDA-MB231, human colorectal adenocarcinoma line HT-29, human prostate cancer line DU145, human uterine cervix carcinoma cell line HeLa, human hepatocarcinoma cell line HepG2 (ATCC, American Type Culture Collection) were cultivated in DMEM (BioWhittaker, Cambrex Bio Science, Belgium) in a 5% CO2 atmosphere at 37° C.
(§3) Cell vitality was assessed with a 0.4% Trypan Blue exclusion test, using an automated Countess cell counter (Life Technologies™).
(§4) The model created appears adapted for the study of plant extracts to be used in association with the classic chemotherapeutic agents. Then cells were treated with doxorubicin, with plant extracts or with their association, and cell vitality was analysed by Trypan Blue/Countess Invitrogen as described in the annexed Materials and Methods. The following treatments were performed:
MDA-MB231 cells cultivated under normoxia and under chronic hypoxia were treated for 24 hours with various concentrations of doxorubicin, elective drug in the treatment of breast cancer.

in vitro = format: cell-based, human; conditions: human
Procedure: (§5) To establish a chronic hypoxia model, the above cell lines were cultivated in DMEM with 10% FBS in 5% CO2 and 1% O2 atmosphere, balanced with N using a multigas incubator (Ruskinn C300, Ruskinn Technology Ltd., Bridgend, United Kingdom). Cells survived through each cell passage were selected and cultivated with reoxygenation and hypoxia cycles for at least 3 months and up to 6 months.
as §3
(§6) In order to re-create a state of chronic hypoxia, present in the interior of a solid tumour, all cell lines indicated in the table above were cultivated for some months in the Ruskin Cabinet at 37° C., under a 1% O2 atmosphere. The medium was changed every three days so as to eliminate dead cells, and approximately every 10-15 days the cells were placed in the incubator under normoxia conditions for 24 hours.
(§7) Among all cells analysed, only MDA-MB231 cell line adapted to the hypoxic environment and survived. […]
as §4, with “The following treatments were performed:” left out

ChR-MDA-MB231 = experiment: cells; format: cell-based, human; conditions: Homo sapiens; chMDAMB231, chronic hypoxia; 24 hours; read-out: EC50 cell vitality
Procedure: as §5, §3, §6, §7
as §4, with “The following treatments were performed:” left out

T1 sequence (P40763 whole entry): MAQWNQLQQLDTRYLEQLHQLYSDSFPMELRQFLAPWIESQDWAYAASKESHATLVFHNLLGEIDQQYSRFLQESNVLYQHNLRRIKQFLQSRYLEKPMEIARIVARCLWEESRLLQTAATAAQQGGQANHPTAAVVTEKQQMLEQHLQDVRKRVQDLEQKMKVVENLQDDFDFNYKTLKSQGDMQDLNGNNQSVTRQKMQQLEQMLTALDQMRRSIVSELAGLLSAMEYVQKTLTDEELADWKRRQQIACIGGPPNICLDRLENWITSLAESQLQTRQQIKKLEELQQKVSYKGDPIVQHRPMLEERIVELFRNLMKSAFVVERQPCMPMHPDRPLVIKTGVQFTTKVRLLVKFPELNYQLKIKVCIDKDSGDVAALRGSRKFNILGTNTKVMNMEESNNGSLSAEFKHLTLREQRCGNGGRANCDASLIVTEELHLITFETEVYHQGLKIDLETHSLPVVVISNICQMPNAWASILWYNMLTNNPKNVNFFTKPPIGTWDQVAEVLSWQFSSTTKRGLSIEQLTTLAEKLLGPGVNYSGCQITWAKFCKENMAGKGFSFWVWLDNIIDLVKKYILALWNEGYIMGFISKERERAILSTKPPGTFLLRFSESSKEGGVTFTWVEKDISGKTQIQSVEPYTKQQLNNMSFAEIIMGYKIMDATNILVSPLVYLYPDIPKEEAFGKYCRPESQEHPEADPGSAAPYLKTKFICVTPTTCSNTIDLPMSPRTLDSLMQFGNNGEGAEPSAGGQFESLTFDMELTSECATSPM

SMILES	binding of STAT3 to DNA (EMSA) (STAT3 [1])	phosphorylation of STAT3 (Western Blot) (STAT3 [1])	cell vitality (WST-1) ([2]; 24 and 48 hours, extract 50-600 μg/ml, cynaropicrin 0-70 μM)	concentration of cynaropicrin for reduction of vitality equal to approximately 90% ([2]; 48 hours, cynaropicrin alone)	molarity of cynaropicrin necessary to reduce cell vitality below 20%, relative to that present in the artichoke extract ([3]; with cisplatinum 15 μg/ml)	molarity of cynaropicrin necessary to reduce cell vitality below 20%, relative to that present in the artichoke extract ([3]; with doxorubicin 2 μg/ml)	intracellular concentration of GSH (GSH)	glutathionylation of STAT3 (STAT3 [4])	binding of STAT3 to DNA (EMSA) (STAT3 [5])	phosphorylation of STAT3 (Western Blot) (STAT3 [5])	EC50 (MDA-MB231)	mortality at 0.25 ug/ml (in vitro)	EC50 (ChR-MDA-MB231)
C=C(CO)C(=O)O[C@H]1CC(=C)[C@@H]2C[C@H](O)C(=C)[C@@H]2[C@H]2OC(=O)C(=C)[C@@H]21 [cynaropicrin]	inhibits the binding of STAT3 to DNA	inhibits the phosphorylation of STAT3	inhibits cell vitality in a time-dependent and dose-dependent manner	50 µM	forty times greater	approximately twenty-five times greater	time-dependent and dose-dependent reduction of the intracellular concentration of GSH	determines the glutathionylation of STAT3	inhibit the binding of STAT3 to DNA	inhibit the phosphorylation of STAT3	–	–	–
COc1cccc2c1C(=O)c1c(O)c3c(c(O)c1C2=O)C[C@@](O)(C(=O)CO)C[C@@H]3O[C@H]1C[C@H](N)[C@H](O)[C@H](C)O1 [doxorubicin]	–	–	–	–	–	–	–	–	–	–	0.25 µg/mL (≈ 0.46 µM)	20%	1 µg/mL (≈ 1.84 µM)
